Data from patent EP4755393A1, “USE OF PROTON PUMP REGULATOR IN PREPARATION OF DRUG” (Shanghai Quietd Biotechnology Co., Ltd., priority 2023, dated 2025).
“Also recorded” adds a separate entry of the source. Ends that are not written are not given here.

Legend:
[1] = system: hippocampal CA1 pyramidal neurons; assay: Whole-cell patch-clamp recording of spontaneous excitatory postsynaptic current (sEPSC) in hippocampal brain sections; format: cell-based, C57 mouse; conditions: 5 µM polypeptide applied for 5 min; clamp voltage -70 mV; FIGS. 8A-8C
From the text: • Polypeptide QD202 was synthesized according to the amino acid sequence set forth in SEQ ID NO: 1. • Polypeptide QD202 N'-1 was synthesized according to the amino acid sequence set forth in SEQ ID NO: 2. • Polypeptide QD202 C'-1 was synthesized according to the amino acid sequence set forth in SEQ ID NO: 3. • Polypeptide QD202 C'-2 was synthesized according to the amino acid sequence set forth in SEQ ID NO: 4. • Polypeptide SS8 was synthesized according to the amino acid sequence set forth in SEQ ID NO: 54.
0.1-0.15 ml of 20% ethyl carbamate was injected into the abdominal cavity of a C57 mouse of 2 to 3 months old for anesthesia; a head was quickly cut, and brain tissues were stripped and put into artificial cerebrospinal fluid (ACSF) ice-water mixed liquid into which mixed gas (95%O2 and 5%CO2) was introduced in advance, and stood for 2 min; the ACSF included the following components: […] of NaCl, […] of KCl, 0.12 mM of NaH2PO4, […] of CaCl2, 0.12 mM of MgCl2, 25 mM of NaHCO3 and 11 mM of glucose. A hippocampus coronal brain section of […] was cut by a vibration slicer. […] The recorded data were analyzed by Minianalysis software.

APP/PS1 transgenic mice [2] = assay: Novel object recognition test in AD mice; format: in vivo; conditions: continuously for 1 week
APP/PS1 transgenic mice [3] = assay: Morris water maze test in AD mice; format: in vivo; conditions: continuously for 1 week
DIR protein = assay: Co-immunoprecipitation of QD202-Biotin peptide with Flag-His-DIR (HEK 293 lysate, western blot and dot blot); format: binding, human; conditions: QD202-Biotin peptide added to lysate of Flag-His-DIR transfected HEK 293; anti-Biotin IP; FIG. 14
Experimental: The Flag-His-DIR expression plasmid was transfected into HEK 293, and cell proteins were extracted 48 h after transfection. Table 2: Plasmid sequences
Protein extraction was performed using Pierce RIPA lysis buffer, 1000 µL of Pierce RIPA lysis buffer containing protease inhibitors was added. Cells were collected and transferred to a clean 1.5 mL EP tube using a cell scraper. After mixing for 1 h on a rotary mixer at 4°C, the cells were centrifuged at 13,000 rpm at 4°C for 10 min to remove cell debris. The supernatant of the cell lysate was divided into two aliquots, each 500 µL, and 10 µL of QD202-Biotin peptide at a concentration of 1 mM was added to one aliquot. From each of the two aliquots, 30 µL of the supernatant was taken and mixed with 10 µL of 4× loading buffer. The mixture was boiled at 100°C for 5 min and then stored frozen at -20°C. For the remaining 470 µL of protein lysate, 2 µL of the antibody (Anti-Biotin, Vector, sp-3000) was added; the mixture was incubated overnight (about 16-18 h) on a rotary shaker at 4°C. 30 µL of Protein G Sepharose beads (Roche, 11243233001) were placed in an EP tube and washed three times with Pierce RIPA lysis buffer. […] The protein was detected by Western blot and dot blot methods (DYKDDDDK-Tag (3B9) mAb, Abmart, M20008; Anti-Biotin, Vector, sp-3000).

Male SD rats = conditions: rat, in vivo
HT22 cells = assay: Quantitative detection of ROS (DCFH-DA) in the oxygen-glucose deprivation (OGD) cell model; format: cell-based, Mouse; conditions: OGD 16 h, 24 h reoxygenation, OGD plus vehicle = 100%, mean ± standard deviation
Experimental: Cell culture: Mouse hippocampal HT22 cells were cultured in DMEM and 10% serum at 37°C in a 5% CO2 incubator.
Oxygen-glucose deprivation (OGD) cell model: HT22 cells were seeded at a density of about 1 ×10^5 into 96-well plates and cultured for 24 h in a 37°C incubator with 5% CO2/95% air in DMEM and 10% serum. After placing HT22 cells in glucose-free medium, they were transferred to a sealed container containing a 5% CO2/95% N2 mixture and incubated at 37°C for 16 h. The glucose-free medium was then replaced with a normal medium containing glucose, and the mixture was incubated for 24 h in a 37°C incubator containing 5% CO2/95% air for reoxygenation.
Experimental grouping: Normally cultured HT22 cells were used as the control group. HT22 cells subjected to OGD were reoxygenated in normal culture medium and treated separately with vehicle, QD202 (0.1 µM, 1 µM, 5 µM), and the ROS scavenger edaravone (200 µM). After 24 h of reoxygenation, quantitative detection of ROS was performed.
Quantitative detection of ROS: Reactive oxygen species were detected using the Beyotime reactive oxygen species detection kit and the fluorescent probe DCFH-DA. DCFH-DA was diluted 1:1000 with serum-free culture medium to a final concentration of 10 µM. The culture medium was removed and the diluted DCFH-DA was added. The cells were then incubated in a 37°C cell culture incubator for 20 min. The cells were washed three times with serum-free cell culture medium to thoroughly remove any DCFH-DA that had not entered the cells. Observation was performed under a fluorescence microscope, followed by quantification of the average fluorescence intensity using Image J software.
Data analysis: Three parallel experiments were performed. The average fluorescence intensity of the OGD plus vehicle group was set as the standard value of 100% for normalization of the fluorescence intensity of cells in each group. Data were expressed as mean ± standard deviation, and […] tests were performed on the data of each group using One-Way ANOVA.

Which results are given for “QD202: Polypeptide synthesized according to the amino acid sequence set forth in SEQ ID NO: 1; ATP6V1B2 regulator / DIR regulator (YGRKKRRQRRRSPVDVVCS; not fully specified)”?
excitatory postsynaptic current amplitude [1]: no influence; release frequency of excitatory postsynaptic current [1]: increasing; learning and cognitive functions in the novel object recognition test (APP/PS1 transgenic mice [2]; intragastric, 6.25 mg/kg, ten-month-old APP/PS1 mice, FIG. 9): obvious improvement of learning and cognitive functions; learning and cognitive functions in novel object recognition (APP/PS1 transgenic mice [2]; intravenous injection, 1.25 mg/kg, APP/PS1 mice of 10 months old, FIG. 11): obvious improvement on learning and cognitive functions; learning and cognitive functions in the water maze behavior (APP/PS1 transgenic mice [3]; intragastric, 6.25 mg/kg, ten-month-old APP/PS1 mice, FIG. 10): obvious improvement of learning and cognitive functions; learning and cognitive functions in water maze behavior (APP/PS1 transgenic mice [3]; intravenous injection, 1.25 mg/kg, APP/PS1 mice of 10 months old, FIG. 12): obvious improvement on learning and cognitive functions; binding to the DIR protein (co-immunoprecipitation) (DIR protein): can bind; neurobehavioral score (Male SD rats): lower than that of the Model + QD202 placebo group with a statistical difference (p<0.05); also recorded: lower than that of the Model + QD202 placebo group with extremely significant statistical differences (p<0.001); inhibition rate of ROS (HT22 cells; 0.1 µM): 17.55±12.95%; inhibition rate of ROS (HT22 cells; 1 µM): 60.63±8.27%; inhibition rate of ROS (HT22 cells; 5 µM): 70.09±2.84%
